Reference: patent US20230250096A1, “SUBSTITUTED PHENYL-1H-PYRROLO[2,3-c] PYRIDINE DERIVATIVES” (Janssen Pharmaceutica NV, priority 2021, published 2023)

Biological target: T1, menin/MLL (terbium chelate-labeled menin, FITC-MBM1 peptide) (Homo sapiens, UniProt O00255, T541A)
T1 construct: Menin (a.a 1-610-6xhis tag, 2.3 mg/mL in 20 mM Hepes)
T1 sequence (O00255 with tags, fused parts or gaps T541A): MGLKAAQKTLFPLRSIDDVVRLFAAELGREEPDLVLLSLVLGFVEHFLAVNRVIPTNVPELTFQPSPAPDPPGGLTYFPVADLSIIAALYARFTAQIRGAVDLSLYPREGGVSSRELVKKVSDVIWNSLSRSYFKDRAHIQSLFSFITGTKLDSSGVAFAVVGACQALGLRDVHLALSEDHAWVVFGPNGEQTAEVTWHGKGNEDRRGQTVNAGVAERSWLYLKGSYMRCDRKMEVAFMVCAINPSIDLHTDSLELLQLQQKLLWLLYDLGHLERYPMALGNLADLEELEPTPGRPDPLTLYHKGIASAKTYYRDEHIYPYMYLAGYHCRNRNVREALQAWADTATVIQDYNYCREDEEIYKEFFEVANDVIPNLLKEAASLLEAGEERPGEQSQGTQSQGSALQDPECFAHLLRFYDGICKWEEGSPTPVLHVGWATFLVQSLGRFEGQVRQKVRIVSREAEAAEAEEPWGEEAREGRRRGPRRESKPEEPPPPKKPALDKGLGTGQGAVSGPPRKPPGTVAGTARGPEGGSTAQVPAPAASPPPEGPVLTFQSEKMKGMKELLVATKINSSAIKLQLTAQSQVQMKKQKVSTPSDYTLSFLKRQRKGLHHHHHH
Experiment: Menin/MLL homogenous time-resolved fluorescence (HTRF) assay
Assay type: binding
Details: 30 min incubation
Procedure, shortened: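 Competition binding read by time-resolved FRET (FITC 520 nm over terbium 490 nm) after compound meets labeled menin 1-610-His […] for 30 min, then FITC-MBM1 (75 nM) for 15 min, ambient temperature, 0.5% DMSO. Eleven-point four-fold dilutions, usually starting at 10 μM, fitted to four-parameter curves for IC50.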

Structure (SMILES) | IC50
Cc1cncc2c1c(C[C@H]1CCN(C(C)C3CCOCC3)C1)cn2-c1ccc(F)cc1C(=O)N(C)C(C)C (mixture of isomers) [Compound 49] | 0.048 nM
Cc1cncc2c1c(C[C@@H]1CCN(CC3CCOCC3)C1)cn2-c1ccc(F)cc1C(=O)N(C)C(C)C (single isomer, unassigned) [Compound 42] | 0.03 nM
Cc1cncc2c1c(C[C@H]1CCN(CC3CCOCC3)C1)cn2-c1ccc(F)cc1C(=O)N(C)C(C)C (single isomer, unassigned) [Compound 43] | 0.027 nM
Cc1cncc2c1c(C[C@@H]1CCN(CC(C)C)C1)cn2-c1ccc(F)cc1C(=O)N(C)C(C)C (single isomer, unassigned) [Compound 44] | 0.06 nM
Cc1cncc2c1c(C[C@H]1CCN(CC(C)C)C1)cn2-c1ccc(F)cc1C(=O)N(C)C(C)C (single isomer, unassigned) [Compound 45] | 0.054 nM
CC(=O)N1CCC(CN2CC[C@@H](Cc3cn(-c4ccc(F)cc4C(=O)N(C)C(C)C)c4cncc(C)c34)C2)CC1 (single isomer, unassigned) [Compound 50] | 0.079 nM
COCC(=O)N1CCC(CN2CCC(Cc3cn(-c4ccc(F)cc4C(=O)N(C)C(C)C)c4cncc(C)c34)C2)CC1 (single isomer, unassigned) [Compound 59] | 0.054 nM
Cc1cncc2c1c(CC1CCN(CC3CCN(C(=O)CC#N)CC3)C1)cn2-c1ccc(F)cc1C(=O)N(C)C(C)C (single isomer, unassigned) [Compound 60] | < 0.0095 nM
Cc1cncc2c1c(C[C@H]1CCN(C[C@H]3CC[C@H](NS(C)(=O)=O)CC3)C1)cn2-c1ccc(F)cc1C(=O)N(C)C(C)C (single isomer, unassigned) [Compound 69] | 0.049 nM
CNC(=O)[C@H]1CC[C@H](CN2CCC(Cc3cn(-c4ccc(F)cc4C(=O)N(C)C(C)C)c4cncc(C)c34)C2)CC1 (single isomer, unassigned) [Compound 70] | 0.114 nM
CNC(=O)[C@H]1CC[C@H](CN2CCC(Cc3cn(-c4ccc(F)cc4C(=O)N(C)C(C)C)c4cncc(C)c34)C2)CC1 (single isomer, unassigned) [Compound 71] | 0.202 nM
COCCN(C)CCCC(C(C)C)N1CC[C@@H](Cc2cn(-c3ccc(F)cc3C(=O)N(C)C(C)C)c3cncc(C)c23)C1 (some centres unmarked) [Compound 1] | 0.033 nM
CC(C)C([C@H]1C[C@@H](N(C)C)C1)N1CC(Cc2cn(-c3ccc(F)cc3C(=O)N(C)C(C)C)c3cncc(Cl)c23)C1 (some centres unmarked) [Compound 41] | 0.202 nM
CC(=O)N1CCC(CN2CCC(Cc3cn(-c4ccc(F)cc4C(=O)N(C)C(C)C)c4cncc(C)c34)CC2)CC1 [Compound 58] | 0.135 nM
Cc1cncc2c1c(CC1CN(CC3CCOCC3)C1)cn2-c1ccc(F)cc1C(=O)N(C)C(C)C [Compound 61] | 0.132 nM
CC(=O)N1CCC(CN2CC(Cc3cn(-c4ccc(F)cc4C(=O)N(C)C(C)C)c4cncc(C)c34)C2)CC1 [Compound 63] | 0.176 nM
COCC(=O)N1CCC(CN2CC(Cc3cn(-c4ccc(F)cc4C(=O)N(C)C(C)C)c4cncc(C)c34)C2)CC1 [Compound 66] | 0.037 nM
Cc1cncc2c1c(CC1CN(CC3CCN(C(=O)CC#N)CC3)C1)cn2-c1ccc(F)cc1C(=O)N(C)C(C)C [Compound 67] | ~0.043 nM
Cc1cncc2c1c(C[C@@H]1CCN(CC3CCOCC3)C1)cn2-c1ccc(F)cc1C(=O)N(CCO)C(C)C [Compound 357] | 0.035 nM

Other lines, results leading:

IC50 | Structure (SMILES)
0.036 nM | CCN(C(=O)c1cc(F)ccc1-n1cc(CC2CN(C(C(C)C)[C@H]3C[C@@H](N4C[C@H]5CN(C(C)=O)C[C@@H]5C4)C3)C2)c2c(C)cncc21)C(C)C (mixture of isomers) [Compound 38a]
0.062 nM | CC(=O)N1CCN([C@H]2C[C@@H]([C@@H](C(C)C)N3CC(Cc4cn(-c5ccc(F)cc5C(=O)N(C)C(C)C)c5cncc(C)c45)C3)C2)CC1 (single isomer, unassigned) [Compound 32a]
0.034 nM | CC(=O)N1C[C@@H]2CN([C@H]3C[C@@H]([C@@H](C(C)C)N4CC(Cc5cn(-c6ccc(F)cc6C(=O)N(C)C(C)C)c6cncc(Cl)c56)C4)C3)C[C@H]2C1 (single isomer, unassigned) [Compound 39a]
0.06 nM | Cc1cncc2c1c(C[C@H]1CCN([C@@H](C)C3CCOCC3)C1)cn2-c1ccc(F)cc1C(=O)N(C)C(C)C (single isomer, unassigned) [Compound 49b]
0.081 nM | Cc1cncc2c1c(C[C@@H]1CCN(CC3CCOCC3)C1)cn2-c1ccc(F)cc1C(=O)N(C[C@H](C)O)C(C)C (single isomer, unassigned) [Compound 365b]
0.07 nM | Cc1cncc2c1c(CC1CN([C@@H](C(C)C)[C@H]3C[C@@H](N4CCC(S(C)(=O)=O)CC4)C3)C1)cn2-c1ccc(F)cc1C(=O)N(C)C(C)C [Compound 33a]
0.126 nM | CCN(C(=O)c1cc(F)ccc1-n1cc(CC2CN(C(C(C)C)[C@H]3C[C@@H](N4CCN(S(C)(=O)=O)CC4)C3)C2)c2c(C)cncc21)C(C)C (some centres unmarked) [Compound 37a]
